From a melting point compilation (Tetko et al.; mined from patent text by program, amines drawn as free bases though some values may be those of a salt)

Row | melting point | Structure (SMILES)
1 | 138 to 140 °C | Cc1cc(OC(=O)c2ccc(Cl)c(OCCn3cnnn3)c2Cl)n(C)n1
2 | 145 to 149 °C | CCCCOc1ncc(C(C)=O)cc1-c1nn2c(CC)nc(CN3CCOCC3)c2c(=O)[nH]1
3 | 132 °C | NC(=NO)c1nc(Cl)c(-c2c(F)cccc2Cl)c(Cl)c1Br
4 | 165 to 166 °C | COc1cc2onc(-c3ccccc3F)c2cc1Cl
5 | 192 to 193 °C | COCCOc1cc([N+](=O)[O-])c2[nH]c(C(=O)O)cc2c1
6 | 36 to 38 °C | COc1ccccc1OCCCl
7 | 162 to 165 °C | COc1ccc(C2(CC(=O)O)CNC(=O)C2)cc1OC (configuration not stated)
8 | 191 to 192 °C | Cc1cccc2c1nc1n2CC(C(C)(C)C)Oc2c(Cl)cccc2-1 (configuration not stated)
9 | 62 to 64 °C | CCc1coc2c(Cc3ccc(C(C)C)cc3)c(C)cc(C)c12
10 | 155 to 157 °C | CC(C)(n1cncn1)C(O)(Cn1cncn1)c1ccc(F)cc1F (configuration not stated)
11 | 78 to 79 °C | CCCCCCOc1ccc2cc(OCCCCCC)ccc2c1
12 | 180 to 182 °C | COc1cccc(N2C(CO)=Cc3cc(S(N)(=O)=O)sc3S2(=O)=O)c1
13 | 77 to 78 °C | COC(=O)CCn1c(=O)n2n(c1=O)C(C(=O)OC(C)(C)C)C=CC2 (configuration not stated)
14 | 301 to 302 °C | CN(Cc1cc(C(F)(F)F)cc(C(F)(F)F)c1)C(=O)c1c(-c2ccc(C(=O)O)cc2)c2cccnc2c(=O)n1C
15 | 149 to 150 °C | CON=C(C)c1ccc(N2CC(CO)OC2=O)cc1 (configuration not stated)
16 | 162 to 163 °C | Clc1ccc(CSc2nnc(-c3ccc4occc4c3)o2)cc1
17 | 135 to 136 °C | CS(=O)c1ccc(C2=C(c3ccccc3)C(=O)C(C)(C)O2)c(Cl)c1 (configuration not stated)
18 | 112 °C | OCCOc1ccc2c(-c3ccccc3F)noc2c1Cl
19 | 185 °C | CN1CC(O)=C(C(=O)Nc2ccccn2)N(C)S1(=O)=O
20 | > 300 °C | N#Cc1ccc(-c2ccc(C(=O)O)s2)cc1
21 | 110 to 113 °C | CC(C)(C)OC(=O)N[C@H](Cc1ccc(Cl)c(Cl)c1)C(=O)N1CCC[C@H]1C(=O)NCC1CCc2nc(N)ncc2C1 (some centres not stated)
22 | 165 to 166 °C | CCOC(=O)c1cc(NCc2c(C)cccc2C)c2nc(C)n(OC)c2c1
23 | 148 to 150 °C | CCC(C)(CC)N=C(NC#N)Nc1cc(Cl)cc(Cl)c1

Row | melting point | Structure (SMILES)
24 | 152 to 154 °C | COCCCS(=O)(=O)NC(=O)CCc1cc(OCC2CC2)nn1Cc1ccc(C(F)(F)F)cc1Cl
25 | 274 to 275 °C | CC(C)(C)c1ccc(C(=O)Nc2cn3cc(-n4cccc4)ccc3n2)cc1
26 | 123 to 125 °C | COC(=O)n1nc(Oc2c(F)cc(C(F)(F)F)cc2Cl)cc1C
27 | 200 to 201 °C | CN1CCN(Cc2cnc(S)n2Cc2cc(F)cc(F)c2)CC1
28 | 135 to 140 °C | Oc1nn(-c2ccccc2)nc1Cl
29 | 163 to 164 °C | O=C(O)C(Cc1ccccc1)c1ccc([N+](=O)[O-])cc1 (configuration not stated)
30 | 32 to 34 °C | CCOC=Nc1c(C(=O)OCC)cnn1C
31 | 148 °C | O=C(NN1CCCCC1)c1nn(-c2ccc(Cl)cc2Cl)c2c1SCc1cc(Cl)ccc1-2
32 | 218 to 220 °C | O=Cc1c2cccc(Cl)c2cc2c(Cl)cccc12
33 | 120 to 122 °C | CCOCn1c(C(=O)c2cc(C)cc(C)c2)c(C(C)C)c(=O)[nH]c1=O
34 | 82 to 85 °C | CC(CCl)(c1cc(Cl)nnc1Cl)C(Cl)Cl (configuration not stated)
35 | 223 to 225 °C | Cc1ccc(NC(=O)N[C@]2(C3CCCCC3)N=Cc3ccccc3N(C)C2=O)cc1N(C)c1nnn[nH]1
36 | 162 to 164 °C | Cc1ccc(S(=O)(=O)C(CC=Cc2ccc(Cl)cc2)C(=O)O)cc1 (configuration not stated)
37 | 127 to 129 °C | CC(c1ccc(Cl)c(Cl)c1)n1[nH]c(N)cc1=O (configuration not stated)
38 | 120 to 122 °C | O=C(CCl)c1ccc2c(c1)CN(C(=O)C(F)(F)F)CC2
39 | 61 to 62 °C | CCCCCCOc1ccc(-c2ccccc2)cc1
40 | 151 °C | COc1cc(-c2nc3ccc(OCCN(C)C)cc3n2Cc2ccccc2C(F)(F)F)cc(OC)c1OC
41 | 44 to 46 °C | CCc1c(CCC(=O)OC)ccc2c1OCO2
42 | 160 to 162 °C | CCOc1cc(CCNC(=O)Cn2c(C#N)ccc2-c2ccc3c(c2)C(C)(C)OC(=O)N3)ccc1OC
43 | 117 to 120 °C | COC(=O)c1ccc(Cl)cc1NC(=O)CSc1nc2ccccc2s1
44 | 114 to 116 °C | N#CC1Sc2ccccc2-c2ccccc21 (configuration not stated)
45 | 56 to 58 °C | N#CCc1ccccc1Oc1ccc(Br)cc1

Continued, compound first:

Row | Structure (SMILES) | melting point
46 | Cc1[nH]c2ccc(OS(=O)(=O)c3c(F)cccc3F)cc2c1C1CCN(C)CC1 | 138 °C
47 | COc1ccc(C=CC(O)C(O)C=Cc2ccc(OC)cc2)cc1 (configuration not stated) | 145 to 146 °C
48 | O=c1[nH]c2sc3c(F)cccc3c2[nH]c1=O | > 35 °C
49 | O=C(OCc1ccccc1)c1ccc(C#Cc2ccccc2)cc1OCc1ccccc1 | 98 to 100 °C
50 | CC(=O)NC1CN(CCN2CCOCC2)S(=O)(=O)c2sc(S(N)(=O)=O)cc21 (configuration not stated) | 110 to 112 °C
51 | CC(O)/C=C/c1ccc(-c2ccccc2)cc1 (configuration not stated) | 138 to 139 °C
52 | O=C(O)Cc1c(C(=O)O)c2cc(Oc3cccc(Cl)c3)ccc2n1-c1ccccc1 | 192 to 194 °C
53 | Cc1cc2c(nc1OCCCCN1CCN(c3cccc4ccccc34)CC1)NC(=O)CC2 | 76 to 78 °C
54 | CC(C(=O)NCCN(C)C)n1cc(-c2ccc(Oc3ccccc3)cc2)c2c(N)ncnc21 (configuration not stated) | 163 to 164 °C
55 | COc1ccc(/C(=C\C=C\C(=O)Oc2ccc([N+](=O)[O-])cc2)c2ccccc2OC)cc1 | 134 to 135 °C
56 | Nc1ccc(SCc2csc(N)n2)cc1 | 130 to 132 °C
57 | CCCCCCCCCCCCCCCC(=O)Oc1ccc(C(O)CNCCc2ccc(OC)c(OC)c2)cc1 (configuration not stated) | 79 to 81 °C
58 | Cc1c(N2CCN(C(C)C)CC2)nn2c(-c3ccnnc3)c(-c3ccc(F)cc3)nc2c1C | 222 to 224 °C
59 | CC1(C)NC(=O)CN1C(=O)CNC(=O)CN1CCCC1=O | 229 to 231 °C
60 | CCCc1c(OCCCSCCBr)ccc(C(C)=O)c1O | 74 to 75 °C
61 | CC(=O)OC[C@H]1OC(O)(Cl)[C@H](NC(=O)c2cccnc2)[C@@H](OC(C)=O)[C@@H]1OC(C)=O (some centres not stated) | 175 to 176 °C
62 | Cc1oc(-c2ccccc2)nc1COc1ccc(COc2ncccc2C#N)cn1 | 117 to 118 °C
63 | Cc1oc(-c2ccccc2)nc1COc1ccc(COc2nn(Cc3ccccc3)cc2CCC(=O)O)cn1 | 130 to 131 °C
64 | CC(Cc1c[nH]c2ccccc12)(NC(=O)OC1C2CC3CC(C2)CC1C3)C(=O)NCCc1cnccn1 (configuration not stated) | 97 to 101 °C

Row | Structure (SMILES) | melting point
65 | Cc1c(-c2ccccc2)oc2c(C=O)cccc2c1=O | 124 to 126 °C
66 | O=C(COc1ccc(OCc2ccccc2)cc1)NCCCn1ccnc1 | 112 to 113 °C
67 | CCc1nc(CO)c(CO)[nH]1 | 173 to 174 °C
68 | CCSc1nc2c(C(=O)OCOC)sc(C)c2[nH]1 | 128 to 130 °C
69 | Cc1nccn1C(=O)NC1CCCCC1 | 100 to 102 °C
70 | Cn1cnc(=O)c(-c2cccc(C(F)(F)F)c2)c1 | 155 to 156 °C
71 | C=CCc1cc(N2CCN(c3ccncc3)CC2)ccc1OCCCC(=O)OCC | 53 to 55 °C
72 | O=C(O)CC(O)c1ccc(-c2ccccc2Cl)o1 (configuration not stated) | 53 to 55 °C
73 | Cc1cc(C=NN2CCNC2=O)no1 | 195 to 197 °C
74 | N#Cc1ccc(/C=C/C=C/C=O)cc1 | 147 to 150 °C
75 | COC(=O)Cc1ccc(OCCNC(=O)C2Cc3ccccc3N2S(=O)(=O)c2ccc(-c3cc(C(F)(F)F)ccc3C)cc2)cc1 (configuration not stated) | 46 to 49 °C
76 | CC1COC(C(=O)C(C)(C)C)C(C(=O)C(C)(C)C)O1 (configuration not stated) | 123 °C
77 | NC(=O)c1cc(N)ccc1SSc1ccc(N)cc1C(N)=O | 188 to 190 °C
78 | Cc1c(-c2ccc3c(c2)NC(=O)CO3)nc2ccccn12 | 280 to 282 °C
79 | O=Cc1c(Cl)ccc(Br)c1F | 92 to 93 °C
80 | Clc1ccc(C2=Nc3cccnc3Nc3ccccc32)cc1 | 203 to 204 °C
81 | Nc1nc(N)nc(C=Cc2ccc(C=C3C(=O)NC(=O)NC3=O)cc2)n1 | > 350 °C
82 | COc1ccc(C(=O)c2ccc(Br)s2)cc1 | 97 to 99 °C
83 | CC(=O)NC(C)COC1CCC(c2nc3ccc(OCC4CC4)cc3o2)CC1 (configuration not stated) | 131 to 132 °C

Row | Structure (SMILES) | melting point
84 | BrCc1cccc2c(-c3ccccc3)c(Br)oc12 | 135 to 138 °C
85 | CC(Cc1c[nH]c2ccccc12)NC1CCC(c2ccccc2)(N(C)C)CC1 (configuration not stated) | 155 to 162 °C
86 | C=C(c1cc(F)ccc1OCc1ccc(-c2ccccc2)cc1)n1ccnc1 | 97 to 98 °C
87 | CC(Oc1c(-c2ccc(S(C)(=O)=O)cc2)cnn(CC(F)(F)F)c1=O)c1ccc(F)cc1 (configuration not stated) | 133 to 135 °C
88 | C[C@@H](OS(C)(=O)=O)C(=O)N1C(=O)N(C)C[C@H]1C(=O)OC(C)(C)C | 97 to 100 °C
89 | Cn1c(=O)c2c(N)ccnc2n(C)c1=O | 233 to 235 °C
90 | CC(C)OC(=O)Nc1cccc(-c2ccnc3c(C(=O)c4ccoc4)cnn23)c1 | 127 to 129 °C
91 | CC(=O)OCC[C@H](NC(=O)C(F)(F)F)C(=O)O | 134 to 136 °C
92 | COc1ccc(C2(O)CCCCC2=O)c(OC)c1OC (configuration not stated) | 88 to 91 °C
93 | CC1(c2ccc3cc(C(O)c4cccnc4)ccc3c2)OCCO1 (configuration not stated) | 154 to 156 °C
94 | Cc1cc(O)n2nc(S(=O)(=O)O)nc2n1 | > 300 °C
95 | CN(C)c1cccc(NC(=O)N(C[C@H]2CC[C@H](CN(C(=O)Nc3cccc(N(C)C)c3)C3CCCCCC3)CC2)C2CCCCCC2)c1 | 151 to 156 °C
96 | CC1(C)OC(=O)C(Oc2ncnc3ccccc23)=C1c1ccc(S(C)(=O)=O)cc1 | 174 to 177 °C
97 | CC(NC(=O)OCc1ccccc1)C(=O)N1C(C(=O)O)CC2CCCCC21 (configuration not stated) | 58.6 °C
98 | CC(=O)OCc1nnc(N)s1 | 191 to 192 °C
99 | COc1cccc(COc2ccc(S(=O)(=O)c3ccc(C)nc3Nc3c(C)cc(C)cc3C)cc2)c1OC | 124 to 126 °C
100 | O=C(NC(Cc1ccc(OCc2ccccc2)cc1)c1noc(=O)[nH]1)c1cn2cc(-c3ccc(Cl)cc3)ccc2n1 (configuration not stated) | 167 °C
101 | NC(=O)CC(O)(Cn1cncn1)C(F)(F)C(F)(F)C(F)(F)C(F)(F)F (configuration not stated) | 145 to 146 °C
102 | O=C1c2ccc([N+](=O)[O-])c3c([N+](=O)[O-])c(Br)cc(c23)C(=O)N1O | 233 to 234 °C
